Measured values as given in patent publication US9840478B2 (MERCK SHARP & DOHME CORP., priority 2013, dated 2017).
Like-named read-outs stand apart in the source and are kept apart here.

Test system: HIV-1 (H9IIIB strain)
Assay: Cell-based HIV infection assay using a reporter (Cell-Based), MT4-GFP cells
Details: 50% normal human serum, mean of at least two independent experiments, read-out: Cell-based IP
Protocol: Cell-Based HIV Infection Assay Using a Reporter (“Cell-Based”):
MT4-GFP cells contain a stably integrated HIV long terminal repeat promoter directing the transcription of green fluorescent protein (GFP). When HIV infects the cell, GFP is produced and the cell becomes green. MT4-GFP cells (250,000 cells/ml) were bulk-infected with HIV-1 (H9IIIB strain) at low multiplicity of infection (MOI) in RPMI media, supplemented with 10% FBS for 24 hours. Cells were then washed once in RPMI plus 10% FBS and resuspended in RPMI plus 50% normal human serum (NHS). Test compounds were serial-diluted in DMSO using an ECHO liquid dispenser. A control well included a combination of three HIV drugs (an inhibitor of HIV protease, integrase strand transfer and a non-nucleoside reverse transcriptase inhibitor; triple drug). The infected MT4-GFP cells were added to a 384-well poly-D-lysine coated black plate with clear bottom in which the diluted test compounds were placed. The cells were seeded in the plate at 8,000 cells per well and the final DMSO concentration was 0.4%. Infected cells were quantified at both 24 and 48 hours post incubation using an Acumen eX3 plate reader. Viral reproductive ratio (R0) was determined using the number of infected cells at 48 hours divided by the number of infected cells at 24 hours. Percent viral growth inhibition was calculated by [1−(R−Rtripledrug)/(RDMSO−Rtripledrug)]*100. Compound potency IP or IC50 was determined with use of a 4-parameter dose response curve analysis.

[1] = Human immunodeficiency virus 1, MT4-GFP cells infected with HIV-1 H9IIIB

SMILES	IC50 [1]	IC50 (MT4-GFP cells infected with HIV-1 H9IIIB)
CC(C)[C@H](c1ccc(Cl)cc1)[C@H](N)C(=O)Nc1cncc(F)c1CC[C@H]1CNC[C@@H](C)N1S(=O)(=O)C1CC1 [Example 178, (βR)-4-chloro-N-(4-{2-[(2S,6R)-1-(cyclopropylsulfonyl)-6-methylpiperazin-2-yl]ethyl}-5-fluoropyridin-3-yl)-β-(1-methylethyl)-L-phenylalaninamide]	340 nM	
COC(=O)N[C@H](C(=O)Nc1cccc(F)c1CC[C@H]1CNC[C@H](C)N1S(=O)(=O)c1ccccc1)[C@@H](c1cccc(Cl)c1)C(C)C [Example 209, (βR)-3-chloro-N-(3-fluoro-2-{2-[(2S,6S)-6-methyl-1-(phenylsulfonyl)piperazin-2-yl]ethyl}phenyl)-Nα-(methoxycarbonyl)-β-(1-methylethyl)-L-phenylalaninamide]	77 nM	
CC[C@H]1CNC[C@H](CCc2c(F)cccc2NC(=O)[C@@H](N)[C@@H](c2ccc(Cl)cc2)C2CCOCC2)N1S(C)(=O)=O [Example 224, (βR)-4-chloro-N-(2-{2-[(2S,6S)-6-ethyl-1-(methylsulfonyl)piperazin-2-yl]ethyl}-3-fluorophenyl)-β-(tetrahydro-2H-pyran-4-yl)-L-phenylalaninamide]	90 nM	
C[C@H]1CNC[C@H](CCc2c(F)cccc2NC(=O)[C@@H](N)[C@@H](c2ccc(F)cc2)c2cc(F)cc(F)c2)N1S(=O)(=O)C1CC1 [Example 223, (βS)-N-(2-{2-[(2S,6S)-1-(cyclopropylsulfonyl)-6-methylpiperazin-2-yl]ethyl}-3-fluorophenyl)-β-(3,5-difluorophenyl)-4-fluoro-L-phenylalaninamide]	36 nM	
CC1(C)CC([C@H](c2ccc(Cl)cc2)[C@H](N)C(=O)Nc2cccc(F)c2CC[C@H]2CNCCN2S(C)(=O)=O)CCO1 (stereo partly drawn) [Example 78, (βR)-4-chloro-β-(2,2-dimethyltetrahydro-2H-pyran-4-yl)-N-(3-fluoro-2-{2-[(2S)-1-(methylsulfonyl)piperazin-2-yl]ethyl}phenyl)-L-phenylalaninamide]	110 nM	
CC[C@H]1CNC[C@H](CCc2c(F)cccc2NC(=O)[C@@H](N)[C@@H](c2ccc(F)cc2)c2cc(F)cc(F)c2)N1S(C)(=O)=O [Example 262, (βS)-β-(3,5-difluorophenyl)-N-(2-{2-[(2S,6S)-6-ethyl-1-(methylsulfonyl)piperazin-2-yl]ethyl}-3-fluorophenyl)-4-fluoro-L-phenylalaninamide]	25 nM	
COC(=O)N[C@H](C(=O)Nc1cccc(F)c1CC[C@H]1CNC[C@H](C)N1S(=O)(=O)c1ccccc1Cl)C(c1cccc(F)c1)c1cccc(F)c1 [Example 138, N-[2-(2-{(2S,6S)-1-[(2-chlorophenyl)sulfonyl]-6-methylpiperazin-2-yl}ethyl)-3-fluorophenyl]-3-fluoro-β-(3-fluorophenyl)-Nα-(methoxycarbonyl)-L-phenylalaninamide]	150 nM	
N[C@@H](Cc1ccc(F)cc1)C(=O)Nc1cncc(F)c1CC[C@H]1CNCCN1S(=O)(=O)C1CC1 [Example 47, N-(4-{2-[(2S)-1-(cyclopropylsulfonyl)piperazin-2-yl]ethyl}-5-fluoropyridin-3-yl)-4-fluoro-L-phenylalaninamide]	1200 nM	
COc1ccc([C@H](c2ccc(Cl)cc2)[C@H](N)C(=O)Nc2cccc(F)c2CC[C@H]2CNC[C@H](C)N2S(=O)(=O)c2ccccc2)cn1 [Example 118, (βS)-4-chloro-N-(3-fluoro-2-{2-[(2S,6S)-6-methyl-1-(phenylsulfonyl)piperazin-2-yl]ethyl}phenyl)-β-(6-methoxypyridin-3-yl)-L-phenylalaninamide]	12 nM	
C[C@@H]1CNC[C@H](CCc2c(F)cccc2NC(=O)[C@@H](N)[C@@H](c2ccc(Cl)cc2)c2cccc(F)c2)N1S(=O)(=O)C1CC1 [Example 204, (βS)-4-chloro-N-(2-{2-[(2S,6R)-1-(cyclopropylsulfonyl)-6-methylpiperazin-2-yl]ethyl}-3-fluorophenyl)-β-(3-fluorophenyl)-L-phenylalaninamide]	80 nM	
C[C@H]1CNC[C@H](CCc2c(F)cncc2NC(=O)[C@@H](N)[C@@H](c2ccc(F)cc2)c2cc(F)cc(F)c2)N1S(C)(=O)=O [Example 191, (βS)-β-(3,5-difluorophenyl)-4-fluoro-N-(5-fluoro-4-{2-[(2S,6S)-6-methyl-1-(methylsulfonyl)piperazin-2-yl]ethyl}pyridin-3-yl)-L-phenylalaninamide]	20 nM	
N[C@H](C(=O)Nc1cncc(F)c1CC[C@H]1CNCCN1S(=O)(=O)c1ccccc1)C1(c2ccc(Cl)cc2)CCOCC1 [Example 70, (2S)-2-amino-2-[4-(4-chlorophenyl)tetrahydro-2H-pyran-4-yl]-N-(5-fluoro-4-{2-[(2S)-1-(phenylsulfonyl)piperazin-2-yl]ethyl}pyridin-3-yl)ethanamide]	27 nM	
C[C@H]1CNC[C@H](CCc2c(F)cncc2NC(=O)[C@@H](N)[C@@H](c2ccc(F)cc2)c2cc(F)cc(F)c2)N1S(=O)(=O)c1ccccc1 [Example 105, (βS)-β-(3,5-difluorophenyl)-4-fluoro-N-(5-fluoro-4-{2-[(2S,6S)-6-methyl-1-(phenylsulfonyl)piperazin-2-yl]ethyl}pyridin-3-yl)-L-phenylalaninamide]	19 nM	
COC(=O)N[C@H](C(=O)Nc1cccc(F)c1CC[C@H]1CNC[C@@H](C)N1S(=O)(=O)c1ccccc1)[C@@H](c1ccc(Cl)cc1)C(C)C [Example 112, (βR)-4-chloro-N-(3-fluoro-2-{2-[(2S,6R)-6-methyl-1-(phenylsulfonyl)piperazin-2-yl]ethyl}phenyl)-Nα-(methoxycarbonyl)-β-(1-methylethyl)-L-phenylalaninamide]	19 nM	
COC(=O)N[C@H](C(=O)Nc1cccc(F)c1CC[C@H]1CNC[C@@H](C)N1S(=O)(=O)C1CC1)[C@@H](c1ccc(F)cc1)c1cc(F)cc(F)c1 [Example 257, (βS)-N-(2-{2-[(2S,6R)-1-(cyclopropylsulfonyl)-6-methylpiperazin-2-yl]ethyl}-3-fluorophenyl)-β-(3,5-difluorophenyl)-4-fluoro-Nα-(methoxycarbonyl)-L-phenylalaninamide]	27 nM	
C[C@@H]1CNC[C@H](CCc2c(F)cccc2NC(=O)[C@@H](N)[C@H](c2cccc(F)c2)c2cccc(Cl)c2)N1S(C)(=O)=O [Example 169, (βR)-3-chloro-N-(3-fluoro-2-{2-[(2S,6R)-6-methyl-1-(methylsulfonyl)piperazin-2-yl]ethyl}phenyl)-β-(3-fluorophenyl)-L phenylalaninamide]	170 nM	
COC(=O)NC(C(=O)NC1CC(F)(F)CC1CC[C@H]1CNCCN1S(=O)(=O)c1ccccc1)C(c1ccc(F)cc1)c1ccc(F)cc1 (stereo in doubt) [Example 359, Methyl ((2R)-1-((4,4-difluoro-2-(2-((S)-1-(phenylsulfonyl)piperazin-2-yl)ethyl)cyclopentyl)amino)-3,3-bis(4-fluorophenyl)-1-oxopropan-2-yl)carbamate]		530 nM
COC(=O)N[C@H](C(=O)Nc1cccc(F)c1CC[C@H]1CNC[C@@H](C)N1S(=O)(=O)c1ccccc1)[C@@H](Cc1ccc(F)cc1)c1ccc(Cl)cc1 [Example 196, (βS)-4-chloro-β-(4-fluorobenzyl)-N-(3-fluoro-2-{2-[(2S,6R)-6-methyl-1-(phenylsulfonyl)piperazin-2-yl]ethyl}phenyl)-Nα-(methoxycarbonyl)-L-phenylalaninamide]	49 nM	
C[C@@H]1CNC[C@H](CCc2c(F)cccc2NC(=O)[C@@H](N)[C@@H](c2ccc(F)cc2)c2cc(F)cc(F)c2)N1S(=O)(=O)c1ccc(OC(F)(F)F)cc1 [Example 255, (βS)-β-(3,5-difluorophenyl)-4-fluoro-N-(3-fluoro-2-{2-[(2S,6R)-6-methyl-1-{[4-(trifluoromethoxy)phenyl]sulfonyl}piperazin-2-yl]ethyl}phenyl)-L-phenylalaninamide]	59 nM	
CC1(C)CC([C@H](c2ccc(Cl)cc2)[C@H](N)C(=O)Nc2cccc(F)c2CC[C@H]2CNCCN2S(=O)(=O)c2ccccc2)CC(C)(C)O1 [Example 75, (βR)-4-chloro-N-(3-fluoro-2-{2-[(2S)-1-(phenylsulfonyl)piperazin-2-yl]ethyl}phenyl)-β-(2,2,6,6-tetramethyltetrahydro-2H-pyran-4-yl)-L-phenylalaninamide]	150 nM	
N[C@H](C(=O)Nc1cccc(F)c1CC[C@H]1CNCCN1S(=O)(=O)c1ccccc1)C(c1ccc(F)cc1)c1ccc(F)cc1 [Example 32, (S)-2-amino-N-(3-fluoro-2-(2-((S)-1-(phenylsulfonyl)piperazin-2-yl)ethyl)phenyl)-3,3-bis(4-fluorophenyl) propanamide]	6.6 nM	
O=C(C[C@@H](c1ccc(F)cc1)c1cc(F)cc(F)c1)Nc1cncc(F)c1CC[C@H]1CNCCN1S(=O)(=O)N1CCCCC1 [Example 325, (3S)-3-(3,5-difluorophenyl)-3-(4-fluorophenyl)-N-(5-fluoro-4-{2-[(2S)-1-(piperidin-1-ylsulfonyl)piperazin-2-yl]ethyl}pyridin-3-yl)propanamide]	13 nM	
